This is an account of results in patent US9073909B2, “[1,3]oxazines” (HOFFMANN-LA ROCHE INC., priority 2011, dated 2015).

The target of data set [1] is T1, BACE1 (Rattus norvegicus, UniProt P56819).
T1 construct: from tissue; host or cells: rat brain (sagittal sections in vitro; brain of living rats for the ex vivo study)
As to the kind of experiment: In vitro autoradiography in rat brain sections. The format is binding. The text has this:
The distribution of [^3H]-5-but-2-ynyloxy-pyrazine-2-carboxylic acid [3-((R)-2-amino-5,5-difluoro-4-methyl-5,6-dihydro-4H-[1,3]oxazin-4-yl)-4-fluoro-phenyl]-amide binding sites as well as the binding specificity for BACE1 was investigated by in vitro autoradiography using male Sprague-Dawley rats. Animals were sacrificed, their brains were rapidly removed and frozen in dry ice powder. Ten μm-thick sagittal sections were cut in a Cryostat microtome and thaw-mounted on adhesion glass slides. Brain sections were first incubated for 10 min in Ringer buffer (NaCl 120 mM, KCl 5 mM, CaCl2 2 mM, MgCl2 1 mM, Tris-HCl 50 mM pH 7.4) at RT and then for 60 min in Ringer buffer containing either 1 nM or 10 nM [^3H]-5-but-2-ynyloxy-pyrazine-2-carboxylic acid [3-((R)-2-amino-5,5-difluoro-4-methyl-5,6-dihydro-4H-[1,3]oxazin-4-yl)-4-fluoro-phenyl]-amide. For the evaluation of non-specific-binding (NSB) of the radiotracer an additional series of sections was incubated with Ringer buffer containing the radiotracer and a reference BACE1 inhibitor ((S)-3-(3,6-dihydro-2H-pyran-4-yl)-7-(2-fluoropyridin-3-yl)-5′H-spiro[chromeno[2,3-c]pyridine-5,5′-oxazol]-2′-amine, CAS Nr 1215869-02-5; example 294 in WO2010030954) at 10 μM. At the end of the incubation, sections were rinsed 3×5 min in ice-cold Ringer buffer and then rapidly dipped once in distilled water at 4° C. Slide-mounted brain sections were dried under a flow of cold air for 3 h and exposed together with [^3H]-microscale to a Fuji Imaging plate for 5 days. The imaging plate was then scanned in a high resolution Fuji BAS reader. The total amount of radiotracer bound to the brain areas of interest (TB) was measured using the MCID image analysis program and expressed as fmol of bound radiotracer/mg of protein. The amount of [^3H]-5-but-2-ynyloxy-pyrazine-2-carboxylic acid [3-((R)-2-amino-5,5-difluoro-4-methyl-5,6-dihydro-4H-[1,3]oxazin-4-yl)-4-fluoro-phenyl]-amide specifically bound to BACE1 (SB) was calculated according to the formula SB=TB−NSB. […]

In data set [2] the target is T1, BACE1. As to the kind of experiment: Ex vivo autoradiography in rats after i.v. tracer injection. How it is done: The in vivo characteristics of [^3H]-5-but-2-ynyloxy-pyrazine-2-carboxylic acid [3-((R)-2-amino-5,5-difluoro-4-methyl-5,6-dihydro-4H-[1,3]oxazin-4-yl)-4-fluoro-phenyl]-amide for imaging BACE1 were analyzed by an ex vivo autoradiographical approach using young male Sprague-Dawley rats. Animals were intravenously injected with 1 mCi/kg [^3H]-5-but-2-ynyloxy-pyrazine-2-carboxylic acid [3-((R)-2-amino-5,5-difluoro-4-methyl-5,6-dihydro-4H-[1,3]oxazin-4-yl)-4-fluoro-phenyl]-amide corresponding to 37.7 nmol/kg and sacrificed at various time points post injection. To test the specificity of tracer binding in vivo, rats were pre-administered with 10 mg/kg of a reference BACE1 inhibitor ((S)-3-(3,6-dihydro-2H-pyran-4-yl)-7-(2-fluoropyridin-3-yl)-5′H-spiro[chromeno[2,3-c]pyridine-5,5′-oxazol]-2′-amine, CAS Nr 1215869-02-5; example 294 in WO2010030954) (p.o.) 3 h prior to tracer injection. Animals were sacrificed at various time points post injection (5, 15, 30, 60, 120 min p.i.), their brains were rapidly removed and frozen in dry ice powder. Ten μm-thick sagittal sections were cut in a Cryostat microtome and thaw-mounted on adhesion glass slides. Slide-mounted brain sections were dried under a flow of cold air for 3 h and exposed together with [^3H]-microscale to a Fuji Imaging plate for 5 days. The imaging plate was then scanned in a high resolution Fuji BAS reader. The total amount of radiotracer bound to the brain areas of interest (TB) was measured using the MCID image analysis program and expressed as fmol of bound radiotracer/mg of protein. The amount of [^3H]-5-but-2-ynyloxy-pyrazine-2-carboxylic acid [3-((R)-2-amino-5,5-difluoro-4-methyl-5,6-dihydro-4H-[1,3]oxazin-4-yl)-4-fluoro-phenyl]-amide specifically bound to BACE1 (SB) was calculated according to the formula SB=TB−NSB.

Data set [3] addresses T2, BACE1 (Homo sapiens, UniProt P56817).
T2 construct: from tissue; host or cells: human brain tissue slices
As to the kind of experiment: Cellular Aβ-lowering assay (BACE1 cell act. Aβ40). The class given is cell-based. The following applies: HEK293 cells stably expressing human APP695; Aβ40 in supernatant. The protocol: a) Human HEK293 cells which are stably transfected with a vector expressing a cDNA of the human APP wt gene (APP695) were used to assess the potency of the compounds in a cellular assay. The cells were seeded in 96-well microtiter plates in cell culture medium (Iscove, plus 10% (v/v) fetal bovine serum, glutamine, penicillin/streptomycin) to about 80% confluence and the compounds were added at a 10× concentration in 1/10 volume of medium without FCS containing 8% DMSO (final concentration of DMSO was kept at 0.8% v/v). After 18-20 hrs incubation at 37° C. and 5% CO2 in a humidified incubator the culture supernatant was harvested for the determination of Aβ40 concentrations. […] After stopping the reaction with one volume 1 N H2SO4 the reaction was measured in an ELISA reader at 450 nm wavelength. The concentrations of Aβ in the culture supernatants were calculated from a standard curve obtained with known amounts of pure Aβ peptide. […]
In a Perkin-Elmer White Optiplate-384 (Cat#6007290), 2 μl culture supernatants were combined with 2 μl of a 10× AlphaLISA Anti-hAβAcceptor beads+Biotinylated Antibody Anti-Aβ 1-40 Mix (50 μg/mL/5 nM). […] Light Emission at 615 nm was then recorded using EnVision-Alpha Reader. Levels of Aβ40 in the culture supernatants were calculated as percentage of maximum signal (cells treated with 1% DMSO without inhibitor). […]

Data set [4] has as its system BACE1. The following applies: baboon, i.v. bolus, PET 0 to 120 minutes.
Description: The PET experiments were carried out in male baboons (papio anubis). Animals were fasted for 12 hours prior to the PET study. Baboons were initially sedated intramuscularly with Ketamine hydrochloride with restraint dosages of 5-7 mg/kg to achieve a superficial level of anesthesia and then maintained on continuous Propofol intravenous infusion @ 0.3-0.4 mg/kg/h ([…] ® Injectable Emulsion). Circulatory volume was maintained by infusion of isotonic saline. A femoral arterial catheter was inserted for blood sampling. Physiological vital signs including heart rate, ECG, blood pressure and oxygen saturation were continuously monitored throughout the study. The animal was positioned in an ECAT HRRT® brain PET scanner (High Resolution Research Tomograph, CPS Innovations, Inc., Knoxville, Tenn.). The head of the animal was fitted with a thermoplastic mask that was attached to a head holder for reproducible fixation. A 6 min transmission scan with a 1 mCi Cs-137 point source was initially done for attenuation correction. […] The radioactivity of a VOI at time T was calculated as the weighted mean and expressed in mCi/ml. […]
SUV (%)=radioactivity (nCi/ml)/106/(dose (mCi)/body weight (kg)×103)×100, where numbers were used to make the unit for radioactivity equivalent between voxel radioactivity and radioactivity dose (106) and between body weight and voxel volume (103).

T1 sequence (P56819 46-501): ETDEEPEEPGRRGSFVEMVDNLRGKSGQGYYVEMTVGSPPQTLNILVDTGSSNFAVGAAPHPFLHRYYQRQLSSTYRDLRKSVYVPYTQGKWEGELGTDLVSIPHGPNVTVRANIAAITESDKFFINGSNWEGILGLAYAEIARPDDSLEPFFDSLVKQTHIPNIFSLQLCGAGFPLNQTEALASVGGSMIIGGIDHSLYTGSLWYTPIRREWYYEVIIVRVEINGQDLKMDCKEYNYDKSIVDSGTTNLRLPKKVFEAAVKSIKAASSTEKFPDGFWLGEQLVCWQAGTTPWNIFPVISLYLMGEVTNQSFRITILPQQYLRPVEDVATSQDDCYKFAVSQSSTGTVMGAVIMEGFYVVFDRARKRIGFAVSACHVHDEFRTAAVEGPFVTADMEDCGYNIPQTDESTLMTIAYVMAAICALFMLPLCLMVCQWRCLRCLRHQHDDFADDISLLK
T2 sequence (P56817 46-501): as the sequence (P56819 46-501) above, with S82G, I162V, I165L, T180S, A182V, V340I, A393L, H443Q counted along it

“[^3H]-5-But-2-ynyloxy-pyrazine-2-carboxylic acid [3-((R)-2-amino-5,5-difluoro-4-methyl-5,6-dihydro-4H-[1,3]oxazin-4-yl)-4-fluoro-phenyl]-amide [Example 2]”: the “reduction of tracer binding” value at BACE1 [1] (1 nM example 2 co-incubated with 10 μM specific BACE1 inhibitor A, rat brain sections) is “more than 80%”. Moreover, on BACE1 [1] (male Sprague-Dawley rat sagittal brain sections), the “brain regions with highest densities of binding sites” value was “dentate gyms and the CA3 region of the hippocampus, the cerebellum, pallidum and substantia nigra”. Further, the “distribution of binding sites in the rat brain” value on BACE1 [1] (male Sprague-Dawley rat sagittal brain sections, 1 nM or 10 nM tracer) was “widespread distribution”. For the same molecule, at BACE1 [2] (10 mg/kg reference BACE1 inhibitor p.o. 3 h prior to tracer injection), the “in vivo binding after pre-treatment with BACE1 ligand A (specificity)” value was “clearly reduced”. The “in vivo distribution pattern of binding (regions of highest accumulation)” value on BACE1 [2] (1 mCi/kg i.v., ex vivo autoradiography) is “highest accumulation in the dentate gyms and the CA3 region of the hippocampus, the cerebellum, pallidum and substantia nigra”. Also, the “wash-out kinetics of tracer binding” value at BACE1 [2] (5, 15, 30, 60, 120 min post injection) is on record as “favorable wash-out kinetics”.

`CC#CCOc1cnc(C(=O)Nc2ccc(F)c([C@@]3(C)N=C(N)OCC3(F)F)c2)cn1` [Example 1, 5-But-2-ynyloxy-pyrazine-2-carboxylic acid [3-((R)-2-amino-5,5-difluoro-4-methyl-5,6-dihydro-4H-[1,3]oxazin-4-yl)-4-fluoro-phenyl]-amide]: at BACE1 [3], the IC50 was found to be 1.1 nM.

With `C[C@]1(c2cc(NC(=O)c3cnc(OCC#C[11CH3])cn3)ccc2F)N=C(N)OCC1(F)F` [Example 3, [^11C]-5-But-2-ynyloxy-pyrazine-2-carboxylic acid [3-((R)-2-amino-5,5-difluoro-4-methyl-5,6-dihydro-4H-[1,3]oxazin-4-yl)-4-fluoro-phenyl]-amide], the “brain uptake of radiotracer” value with BACE1 [4] is “rapidly taken up in multiple brain areas”.
